Measured values taken from PubChem BioAssay (NCI).
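At the GI50, growth is halved. Definition used: TGI = concentration required for complete inhibition of growth.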

Legend:
Experiment in all cases: NCI-60 cell line screen, 384-well format
ACHN renal = test system: ACHN renal
SK-MEL-28 melanoma = test system: SK-MEL-28 melanoma
U251 glioblastoma = test system: U251 glioblastoma
SF-539 CNS = test system: SF-539 CNS
K-562 leukemia = test system: K-562 leukemia
OVCAR-5 ovarian = test system: OVCAR-5 ovarian
SNB-19 CNS = test system: SNB-19 CNS
MDA-MB-435 melanoma = test system: MDA-MB-435 melanoma
IGROV1 ovarian = test system: IGROV1 ovarian
A498 renal = test system: A498 renal
SF-295 CNS = test system: SF-295 CNS
SN12C renal = test system: SN12C renal
CCRF-CEM leukemia = test system: CCRF-CEM leukemia
OVCAR-3 ovarian = test system: OVCAR-3 ovarian
SF-268 CNS = test system: SF-268 CNS
SK-MEL-5 melanoma = test system: SK-MEL-5 melanoma
A549 NSCLC = test system: A549 NSCLC
MDA-MB-468 breast = test system: MDA-MB-468 breast
HCC-2998 colon = test system: HCC-2998 colon
PC-3 prostate = test system: PC-3 prostate
NCI-H460 NSCLC = test system: NCI-H460 NSCLC
RPMI-8226 leukemia = test system: RPMI-8226 leukemia
DU-145 prostate = test system: DU-145 prostate
TK-10 renal = test system: TK-10 renal
COLO 205 colon = test system: COLO 205 colon
HOP-62 NSCLC = test system: HOP-62 NSCLC
UACC-257 melanoma = test system: UACC-257 melanoma
OVCAR-4 ovarian = test system: OVCAR-4 ovarian
NCI-H322M lung = test system: NCI-H322M lung
BT-549 breast = test system: BT-549 breast
UACC-62 melanoma = test system: UACC-62 melanoma
MALME-3M melanoma = test system: MALME-3M melanoma
SK-OV-3 ovarian = test system: SK-OV-3 ovarian
RXF 393 renal = test system: RXF 393 renal
MCF7 breast = test system: MCF7 breast
SW-620 colon = test system: SW-620 colon
KM12 colon = test system: KM12 colon
CAKI-1 renal = test system: CAKI-1 renal
LOX IMVI melanoma = test system: LOX IMVI melanoma
HOP-92 NSCLC = test system: HOP-92 NSCLC
NCI-H23 lung = test system: NCI-H23 lung
HT29 colon = test system: HT29 colon
MOLT-4 leukemia = test system: MOLT-4 leukemia
SR leukemia = test system: SR leukemia
OVCAR-8 ovarian = test system: OVCAR-8 ovarian
UO-31 renal = test system: UO-31 renal
T-47D breast = test system: T-47D breast
786-0 renal = test system: 786-0 renal
NCI/ADR-RES ovarian = test system: NCI/ADR-RES ovarian
M14 melanoma = test system: M14 melanoma
MDA-MB-231 breast = test system: MDA-MB-231 breast
HCT-15 colon = test system: HCT-15 colon
SK-MEL-2 melanoma = test system: SK-MEL-2 melanoma
HL-60(TB) leukemia = test system: HL-60(TB) leukemia
NCI-H226 lung = test system: NCI-H226 lung
HCT-116 colon = test system: HCT-116 colon

CCCC[C@@H](COC(=O)N(Cc1cccs1)Cc1cccs1)NC(=O)N[C@@H](CC(=O)OC)c1ccc2c(c1)OCO2 was tested, and the GI50 (ACHN renal) was over 100 µM, the TGI (ACHN renal) was over 100 µM and the GI50 (SK-MEL-28 melanoma) was over 100 µM. For the same molecule, the TGI (SK-MEL-28 melanoma) was over 100 µM, the GI50 (U251 glioblastoma) was over 100 µM and the TGI (U251 glioblastoma) was over 100 µM. The GI50 (SF-539 CNS) was over 100 µM, the TGI (SF-539 CNS) was over 100 µM and the GI50 (K-562 leukemia) was over 100 µM. For the same molecule, the TGI (K-562 leukemia) was over 100 µM, the GI50 (OVCAR-5 ovarian) was over 100 µM and the TGI (OVCAR-5 ovarian) was over 100 µM. For the same molecule, the GI50 (SNB-19 CNS) was over 100 µM, the TGI (SNB-19 CNS) was over 100 µM and the GI50 (MDA-MB-435 melanoma) was over 100 µM. For the same molecule, the TGI (MDA-MB-435 melanoma) was over 100 µM, the GI50 (IGROV1 ovarian) was over 100 µM and the TGI (IGROV1 ovarian) was over 100 µM. It also gave a GI50 (A498 renal) of over 100 µM, a TGI (A498 renal) of over 100 µM and a GI50 (SF-295 CNS) of over 100 µM. The TGI (SF-295 CNS) was over 100 µM, the GI50 (SN12C renal) was over 100 µM and the TGI (SN12C renal) was over 100 µM. It also gave a GI50 (CCRF-CEM leukemia) of over 100 µM, a TGI (CCRF-CEM leukemia) of over 100 µM and a GI50 (OVCAR-3 ovarian) of over 100 µM. The TGI (OVCAR-3 ovarian) was over 100 µM, the GI50 (SF-268 CNS) was over 100 µM and the TGI (SF-268 CNS) was over 100 µM. The GI50 (SK-MEL-5 melanoma) was 83 µM, the TGI (SK-MEL-5 melanoma) was over 100 µM and the GI50 (A549 NSCLC) was over 100 µM. The TGI (A549 NSCLC) was over 100 µM, the GI50 (MDA-MB-468 breast) was over 100 µM and the TGI (MDA-MB-468 breast) was over 100 µM. It also gave a GI50 (HCC-2998 colon) of over 100 µM, a TGI (HCC-2998 colon) of over 100 µM and a GI50 (PC-3 prostate) of over 100 µM. It also gave a TGI (PC-3 prostate) of over 100 µM, a GI50 (NCI-H460 NSCLC) of over 100 µM and a TGI (NCI-H460 NSCLC) of over 100 µM. It also gave a GI50 (RPMI-8226 leukemia) of 2.87 µM, a TGI (RPMI-8226 leukemia) of 6.14 µM and a GI50 (DU-145 prostate) of over 100 µM. The TGI (DU-145 prostate) was over 100 µM, the GI50 (TK-10 renal) was over 100 µM and the TGI (TK-10 renal) was over 100 µM. For the same molecule, the GI50 (COLO 205 colon) was over 100 µM, the TGI (COLO 205 colon) was over 100 µM and the GI50 (HOP-62 NSCLC) was over 100 µM. It also gave a TGI (HOP-62 NSCLC) of over 100 µM, a GI50 (UACC-257 melanoma) of over 100 µM and a TGI (UACC-257 melanoma) of over 100 µM. The GI50 (OVCAR-4 ovarian) was over 100 µM, the TGI (OVCAR-4 ovarian) was over 100 µM and the GI50 (NCI-H322M lung) was over 100 µM. For the same molecule, the TGI (NCI-H322M lung) was over 100 µM, the GI50 (BT-549 breast) was over 100 µM and the TGI (BT-549 breast) was over 100 µM. It also gave a GI50 (UACC-62 melanoma) of 65 µM, a TGI (UACC-62 melanoma) of over 100 µM and a GI50 (MALME-3M melanoma) of over 100 µM. The TGI (MALME-3M melanoma) was over 100 µM, the GI50 (SK-OV-3 ovarian) was over 100 µM and the TGI (SK-OV-3 ovarian) was over 100 µM. The GI50 (RXF 393 renal) was 5.08 µM, the TGI (RXF 393 renal) was over 100 µM and the GI50 (MCF7 breast) was over 100 µM. It also gave a TGI (MCF7 breast) of over 100 µM, a GI50 (SW-620 colon) of over 100 µM and a TGI (SW-620 colon) of over 100 µM. It also gave a GI50 (KM12 colon) of over 100 µM, a TGI (KM12 colon) of over 100 µM and a GI50 (CAKI-1 renal) of over 100 µM. It also gave a TGI (CAKI-1 renal) of over 100 µM, a GI50 (LOX IMVI melanoma) of over 100 µM and a TGI (LOX IMVI melanoma) of over 100 µM. It also gave a GI50 (HOP-92 NSCLC) of over 100 µM, a TGI (HOP-92 NSCLC) of over 100 µM and a GI50 (NCI-H23 lung) of 90.7 µM. It also gave a TGI (NCI-H23 lung) of over 100 µM, a GI50 (HT29 colon) of over 100 µM and a TGI (HT29 colon) of over 100 µM. For the same molecule, the GI50 (MOLT-4 leukemia) was 2.28 µM, the TGI (MOLT-4 leukemia) was 4.54 µM and the GI50 (SR leukemia) was 6.03 µM. The TGI (SR leukemia) was over 100 µM, the GI50 (OVCAR-8 ovarian) was over 100 µM and the TGI (OVCAR-8 ovarian) was over 100 µM. For the same molecule, the GI50 (UO-31 renal) was 53.2 µM, the TGI (UO-31 renal) was over 100 µM and the GI50 (T-47D breast) was 50.5 µM. For the same molecule, the TGI (T-47D breast) was over 100 µM, the GI50 ([…]-0 renal) was over 100 µM and the TGI (786-0 renal) was over 100 µM. For the same molecule, the GI50 (NCI/ADR-RES ovarian) was 55.5 µM, the TGI (NCI/ADR-RES ovarian) was over 100 µM and the GI50 (M14 melanoma) was over 100 µM. For the same molecule, the TGI (M14 melanoma) was over 100 µM, the GI50 (MDA-MB-231 breast) was over 100 µM and the TGI (MDA-MB-231 breast) was over 100 µM. It also gave a GI50 (HCT-15 colon) of over 100 µM, a TGI (HCT-15 colon) of over 100 µM and a GI50 (SK-MEL-2 melanoma) of over 100 µM. The TGI (SK-MEL-2 melanoma) was over 100 µM, the GI50 (HL-60(TB) leukemia) was 14.6 µM and the TGI (HL-60(TB) leukemia) was over 100 µM. It also gave a GI50 (NCI-H226 lung) of over 100 µM, a TGI (NCI-H226 lung) of over 100 µM and a GI50 (HCT-116 colon) of 7.28 µM. It also gave a TGI (HCT-116 colon) of over 100 µM.
